Reference: patent US20150202179A1, “FATTY ACID DERIVATIVES FOR USE IN A METHOD OF TREATING DEPRESSION AND ASSOCIATED CONDITIONS” (YISSUM RESEARCH DEVELOPMENT COMPANY OF THE HEBREW …, priority 2012, published 2015)
“Also recorded” adds a separate entry of the source.

What was measured:
serotonin (5HT) levels = test: Serotonin (5HT) determination in brain tissue by HPLC with electrochemical detection; type: in vivo, mice; details: for 5HT: ng/g wet tissue +/− SEM; for 5HT levels in the hippocampus vs. control / 5HT levels in the hypothalamus vs. control: result in words
Description: (§1) Solution of DHBA as internal standard in the concentration of: 1 μg/ml in 0.1M perchloric acid, were prepared. Standard solutions of NE and 5HT in the concentration of 1-0.1 μg/ml in 0.1M perchloric acid were prepared.
(§2) Tissues (hypothalamus and hippocampus) obtained from 6-8 mice were dissected on ice surface and kept at −80 C. Hypothalamus (HT) or hippocampus (HC) from 1 mice were weighted (weight of HT −10-20 mg, HC 30-40 mg) and placed in eppendorf micro-centrifuge tube, 1.5 ml. To each tube was added 120-160 μl of ice cold solution of Perchloric acid and DHBA, homogenized in ice bath on Sonics vibra cell, 3×20 sec., 0.4 watts and centrifuged at 14,000×g at 4° C. 10 min. Supernatant gained was stored in ice before analysis.
(§3) The HPLC system consisted of Jasco PU-980 pump, Jasco AS-950-10 autosampler cooled at 4° C., H3 ODS-125A 3 μm 125 mm×4.6 mm i.d. analytical column (Hichrom, UK) were used. Electrochemical detector Coulochem ESA 5100A with analytical cell model 5011 was used for control detector voltage and record the current. Working electrode was set at potential +350 mV. Control and data collection/processing were handled through Borwin chromatography software.
(§4) The mobile phase composition: A stock buffer was prepared as follows: 20 mM sodium dihydrogenorthophosphate, EDTA 3 mg/l, 1-heptanesulfonic acid 1 g/l were dissolved in 1 liter deionized distilled water and buffered to pH 3.7 using concentrated phosphoric acid. To prepare the mobile phase buffer was mixed with acetonitrile (Baker HPLC analyzed) in the ratio 85:15 (v/v), filtered through a 0.2 μm membrane filter and degassed under vacuum after mixing. Mobile phase flow rate 1 ml/min. Injection volume 20 μl, retention time for DHBA 4.2 min., norepinephrine—3.1 min., 5HT 8.6 min. For calibration curve 1 ug/ml solution of DHBA together with 1.0-0.1 μg/ml solutions of 5HT and NE were used. The ratio between 5HT or NE and DHBA used to calculate the level of 5HT and NE in the sample. Date are given in ng/g wet tissue +/−SEM.

[1] = test system: Norepinephrine (NE) levels; test: Norepinephrine (NE) determination in brain tissue by HPLC with electrochemical detection; type: in vivo, mice; details: for NE: ng/g wet tissue +/− SEM; for norepinephrine levels in the hippocampus vs. control / norepinephrine levels in the hypothalamus vs. control: result in words
Description: as §1, §2, §3, §4

[2] = Weight and food consumption in Sabra mice; type: in vivo
Description: 140 Female Sabra Mice 12 weeks old are divided to […] 10 mice in each group with equal weight. Mice are administered I.P. with either saline or 1 mg/kg Fluoxetine (PROZAC), compound 1, 4, 5, 7, 10, 11, 12, 13, 14, 15, 19, 26 for a 4 weeks period. On day 30 and on, mice were tested by the following behavioral tests. […]

[3] = Weight and food consumption in OB/OB mice which lack the leptin gene; type: in vivo
Excerpt: Thus the compounds of the invention can be used to treat conditions that are mediated by the enhancement of leptin levels. In obesity there is high leptin level however the leptin receptors are not responding. High CNS leptin level has anti-depression effect however, if there is tolerance there is no anti depression effect.

[4] = Tail Suspension Test, separated BALB/c mice (model for depression); type: in vivo; details: compounds 1 mg/kg i.p., imipramine 10 mg/kg i.p.; day 7; in relation to vehicle
Excerpt: Tail suspension test (TST): Animals are suspended upside down by adhesive tape placed 1 cm from the tail tip. The elevation of the animal is 50 cm from the nearest surface. […] Statistical analysis compares the magnitude of immobility (in seconds) between different treatment groups. In this test, antidepressants characteristically cause an increase of the time fraction spent by the animal as active at the expense of the inactivity period.
50, 2 month old female BALB/c mice were separated (each mouse in a different cage) for 9 days period (a model for depression). On days 7, 8, 9, 34-40 mice were administered with either vehicle or compounds X, 12 and 15 (1 mg/kg i.p.) or imipramine 10 mg/kg (anti-depressant) i.p. and tested in the Tail suspension test on day 7 of the experiment (10 mice per group).

[5] = Forced Swim Test (FST), separated BALB/c mice; type: in vivo; details: compounds 1 mg/kg i.p., imipramine 10 mg/kg i.p.; day 8; in relation to vehicle
Description: Forced swim test (FST): The animal is placed in a circular, transparent, plexiglass tank measuring 21 cm in diameter and 46 cm in height containing water 15 cm high, maintained at 23-25° C. […] Also measured is the latency period, the time elapsing, for each animal from immersion in the water tank until the first occurrence of immobility. Since climbing activity is minimal in mice, […].
(§5) 50, 2 month old female BALB/c mice, 10 mice per group, on ad libitum diet were separated (each mouse in a different cage) for 9 days (Separation Stress, a model for depression). On the 7, 8, 9, 34-40 days mice were administered with either vehicle or compounds x, 12 and 15 (1 mg/kg i.p.) or imipramine 10 mg/kg (antidepressant) i.p. and tested in the forced swim test (FST) on day 8.

[6] = Novelty Suppressed Feeding Test (NSFT), separated BALB/c mice; type: in vivo; details: compounds 1 mg/kg i.p., day 9
Description: (§6) Novelty suppressed feeding test (NSFT): After the last treatment injection, all food is removed from the cage for 24 hours (water available ad libitum). At the end of this time, the animal is introduced into a 50×50×20 (height) cm wooden arena the floor of which is marked with equal rectangles of 10×10 cm. A pellet of food is placed on an elevated surface in the center of the arena. The time elapsing from the introduction of the animal into the arena until it commences eating (latency to feed) is recorded. The animal is removed from the arena immediately after it begins to eat or after not doing so for 5 min. During the test, the number of lines crossed by the animal is counted as a measure of motor activity, and calibrated for 5 min if the animal started eating before that. After the test, the animal is immediately transferred to its home cage and left to consume a previously weighed amount of food for 10 minutes. On completion of this period the food is weighed again to calculate the home cage food consumption.
as §5, with “34-40,” for “34-40”, “Novel Suppressed Feeding Test” for “the forced swim test (FST)”, “9.” for “8.”
as §6, with “FIGS. 9A-9C show the results of the NSFT. […]” for “Novelty suppressed feeding test (NSFT):”, “hours.” for “hours (water available ad libitum).”, “into” for “into a 50×50×20 (height) cm wooden arena”, “open field test.” for “floor of which is marked with equal rectangles of 10×10 cm.”, “to find” for “elapsing from”, “food was” for “introduction of the animal into the arena until it commences eating (latency to feed) is”

[7] = Eight Arm Maze Test, separated BALB/c mice; type: in vivo; details: compounds 1 mg/kg i.p., imipramine 10 mg/kg i.p.; day 34-38; in relation to vehicle (p<0.05)
Description: 2 month old female BALB/c mice 10 mice per group were separated (each mouse in a different cage) for 9 days (a model for depression). On days 7, 8, 9, 34-40 days mice were administered with either vehicle or compounds X, 12 and 15 (1 mg/kg i.p.) or imipramine 10 mg/kg (anti-depressant) i.p. and tested in the Eight Arm Maze from day 34-38.

[8] = Neurological score measured by the NSS method; type: in vivo, BALB/c mice; details: 1 mg/kg i.p.

CCCCCCCC/C=C\CCCCCCCCNC(=O)N[C@H](CO)C(C)C [Compound 15, Oleyl-amine-carbonyl-L-valinol]
5HT (serotonin (5HT) levels; Hippocampus): 396.7 ± 21 ng/g
5HT (serotonin (5HT) levels; Hypothalamus): 853 ± 78.3 ng/g
5HT levels in the hippocampus vs. control (serotonin (5HT) levels): increased significantly
5HT levels in the hippocampus vs. control (serotonin (5HT) levels; listed as compound 15): significantly enhanced
5HT levels in the hypothalamus vs. control (serotonin (5HT) levels): increased significantly
5HT levels in the hypothalamus vs. control (serotonin (5HT) levels; listed as compound 15): significantly enhanced
NE ([1]; Hippocampus): 373.7 ± 48.1 ng/g
NE ([1]; Hypothalamus): 1234.8 ± 59.8 ng/g
norepinephrine levels in the hippocampus vs. control [1]: increase significantly
norepinephrine levels in the hippocampus vs. control ([1]; listed as compound 15): significantly enhanced
norepinephrine levels in the hypothalamus vs. control [1]: increased significantly
norepinephrine levels in the hypothalamus vs. control ([1]; listed as compound 15): significantly enhanced
food consumption [2]: significant decrease
weight (weight loss) [2]: significant weight loss; also recorded: significant decrease
food consumption [3]: did not change
weight (weight loss) [3]: do not produce weight loss; also recorded: did not change
activity in Tail Suspension Test [4]: significantly enhanced activity
swimming activity in forced swim test [5]: significantly enhanced swimming activity
food intake in NSFT ([6]; in relation to vehicle and more than imipramine 10 mg/kg): significantly enhanced food intake
motor activity in NSFT ([6]; resembled imipramine 10 mg/kg): enhanced motor activity
performance in the Eight Arm Maze [7]: significantly improved performance
neurological score (NSS method) [8]: did not affect neurological score
